In EP2212334B1, “PROTEASOME INHIBITORS” (Millennium Pharmaceuticals, Inc., priority 2007, dated 2009):

Target: T1, rat spleen 20S immunoproteasome (Rattus norvegicus, UniProt P28064+P28077)
T1 construct: rat spleen 20S immunoproteasome (Boston Biochem, 0.25 nM final); purchased Boston Biochem; host or cells: rat spleen (tissue-derived 20S immunoproteasome)
Test: Rat 20S (PA28 activation) β1i and β5i Proteasome Assays (result stated for one or both)
Type: biochemical
Conditions: human PA28 activator, Ac-PAL-AMC (β1i) or Ac-ANW-AMC (β5i) substrate, not stated which of the two assays
Experimental: Rat 20S (PA28 activation) β1i Proteasome Assay
(§1) To 1 µL of test compound dissolved in DMSO in a 384-well black microtiter plate is added 25 µL of assay buffer at 37 °C containing human PA28 activator (Boston Biochem, 12 nM final) with Ac-PAL-AMC (•1i selective substrate) (40 µM final), followed by 25 µL of assay buffer at 37 °C containing rat spleen 20S immunoproteasome (Boston Biochem, 0.25 nM final). Assay buffer is composed of 20 mM HEPES, 0.5 mM EDTA and 0.01% BSA, pH7.4. The reaction is followed on a BMG Galaxy plate reader (37 °C, excitation 380 nm, emission 460 nm, gain 20). Percent inhibition is calculated relative to 0% inhibition (DMSO) and 100% inhibition (10 µM bortezomib) controls.
Rat 20S (PA28 activation) β5i Proteasome Assay
as §1, with “Ac-ANW-AMC •5i” for “Ac-PAL-AMC (•1i”, “substrate (30” for “substrate) (40”, “final)” for “final),”, “(37°C,” for “(37 °C,”

Row | Structure (SMILES) | IC50 [nM]
1 | Cc1cccc(C[C@H](NC(=O)C2(NC(=O)c3ccc(Cl)cc3)CC2)B(O)O)c1 [Compound 2, [(1R)-1-[((1-[(4-chlorobenzoyl)amino]cyclopropyl)carbonyl)amino]-2-(3-methylphenyl)ethyl]boronic acid] | ≤ 10000
2 | CC(C)C[C@H](NC(=O)[C@]1(NC(=O)c2cnccn2)C[C@H]1c1ccccc1)B(O)O [Compound 3, {(1R)-3-methyl-1-[(((1S,2S)-2-phenyl-1-[(pyrazin-2-ylcarbonyl)amino]-cyclopropyl}carbonyl)amino]butyl)boronic acid] | ≤ 1000
3 | CC(C)C[C@H](NC(=O)C1(NC(=O)OCc2ccccc2)CCC1)B(O)O [Compound 18, ((1R)-1-{[(1-{[(benzyloxy)carbonyl]amino}cyclobutyl)carbonyl]amino}-3-methylbutyl)boronic acid] | ≤ 1000
4 | Cc1ccc(C[C@H](NC(=O)C2(NC(=O)c3cnccn3)CC2)B(O)O)cc1 [Compound 19, {(1R)-2-(4-methylphenyl)-1-[({1-[(pyrazin-2-ylcarbonyl)amino]cyclopropyl}-carbonyl)amino]ethyl}boronic acid] | ≤ 10000
5 | CC(C)C[C@H](NC(=O)C(C)(C)NC(=O)c1cnc2ccccc2n1)B(O)O [Compound 21, [(1R)-3-methyl-1-({2-methyl-2-[(quinoxalin-2-ylcarbonyl)amino]propanoyl}-amino)butyl]boronic acid] | ≤ 1000
6 | CC(C)C[C@H](NC(=O)C1(NC(=O)Cc2ccccc2)CC1)B(O)O [Compound 22, {(1R)-3-methyl-1-[({1-[(phenylacetyl)amino]cyclopropyl}carbonyl)amino]-butyl}boronic acid] | ≤ 1000
7 | CC(C)C[C@H](NC(=O)C(C)(C)NC(=O)c1ccc(Cl)cc1)B(O)O [Compound 25, [(1R)-1-({2-[(4-chlorobenzoyl)amino]-2-methylpropanoyl]amino)-3-methylbutyl]boronic acid] | ≤ 1000
8 | CC(C)C[C@H](NC(=O)C(C)(C)NC(=O)c1cnccn1)B(O)O [Compound 28, [(1R)-3-methyl-1-({2-methyl-2-[(pyrazin-2-ylcarbonyl)amino]propanoyl}-amino)butyl]boronic acid] | ≤ 1000
9 | CC(C)C[C@H](NC(=O)C1(NC(=O)c2ccccc2C(F)(F)F)CC1)B(O)O [Compound 30, ((1R)-3-methyl-1-{[(1-{[2-(trifluoromethyl)benzoyl]amino}cyclopropyl)-carbonyl]amino)butyl)boronic acid] | ≤ 1000
10 | CC(C)C[C@H](NC(=O)C(C)(C)NC(=O)OCc1ccccc1)B(O)O [Compound 32, ((1R)-1-[(2-([(benzyloxy)carbonyl]amino)-2-methylpropanoyl)amino]-3-methylbutyl)boronic acid] | ≤ 1000
